Assay results: patent publication US9765113B2, “Methods and agents for the treatment of cancer” (INTERK PEPTIDE THERAPEUTICS LIMITED, priority 2003, dated 2017)
Where two headings read alike, the source gives them in different places. Values belong to the compound of their own block, whether it stands above or below them. Ends that are not written are not given here.

Columns and labels:
HUVEC cells = assay: Cell proliferation assay using MTT; type: cell-based, human
Procedure: The ability of the 10(4) peptide […] (SEQ ID No: 7) linked to the signal peptide […] (SEQ ID No: 1) to inhibit the proliferation of the above cell lines was assessed using the cell proliferation assay described in Example 2.1.

HT29 colon cancer cells [1] = assay: Annexin-V-FITC FACScan apoptosis analysis; type: cell-based; conditions: peptide 16 hours, staurosporine 1 μM 1-2 hours
Procedure: (§1) The killing of HT29 cancer cells compared to normal keratinocytes, human umbilical vein epithelial cells (HUVECs) and skin fibroblasts by the peptide […] (IK2) (SEQ ID No: 16) was assessed. Briefly, cells were recovered by trypsinisation and resuspended into fresh culture medium. Cell viability was determined (0.4% Trypan Blue in phosphate buffered saline (PBS) 1:1 v/v), and 0.75×10^6 viable cells were passaged into a 25 cm^2 tissue culture flask then cultured for 24 hours at 37° C., 5% CO2 in air. Immediately prior to the addition of the IK2 peptide, culture media was removed by decanting and replaced with fresh media (2.0 mls minus volume addition of IK2 peptide). The treated cells were then cultured for 16 hours.
(§2) Cells were prepared as above for the positive control. Staurosporine (Sigma #S5921) was added to the culture media to a final concentration of 1 μM and the cells exposed to the apoptosis inducer for a maximum of 1-2 hours. For a negative control, vehicle alone (normal saline) was added to cell culture media.
Apoptotic cells were detected by FACScan analysis utilising Annexin-V-FITC (Sigma kit #A2214) to indicate apoptosis. For the analysis, cells were recovered by trypsinisation as above, and resuspended (˜1×10^6 cells/ml) into 1× binding buffer (Sigma #B9796). […] Cells were incubated at room temperature for 10 minutes in the dark and fluorescence determined by flow cytometer. […]

[2] = tested on: normal keratinocytes (KC); assay: Annexin-V-FITC FACScan apoptosis analysis; conditions: FIG. 23
Procedure: as §1, §2
(§3) Apoptotic cells were detected by FACScan analysis utilising Annexin-V-FITC (Sigma kit #A2214) to indicate apoptosis. For the analysis, cells were recovered by trypsinisation as above, and resuspended (˜1×10^6 cells/ml) into 1× binding buffer (Sigma #B9796). 500 μl of cell suspension was then aliquoted into a 10 ml plastic test tube, prior to the addition of 5 μl of Annexin-V FITC and 10 μl of propidium iodide (Sigma #P2667). Cells were incubated at room temperature for 10 minutes in the dark and fluorescence determined by flow cytometer. Living cells are not stained by either Annexin-V-FITC or propidium iodide, while early apoptosis is indicated by staining with Annexin-V-FITC only and necrotic cells are stained by both Annexin-V-FITC and propidium iodide.

HUVEC = assay: Annexin-V-FITC FACScan apoptosis analysis; conditions: FIG. 23
Procedure: as §1, §2, §3

skin fibroblasts (SkinF) = assay: Annexin-V-FITC FACScan apoptosis analysis; conditions: skin fibroblast (SkinF), FIG. 23
Procedure: as §1, §2, §3

[3] = tested on: HT29 colon cancer xenografts; assay: In vivo tumour growth of HT29 colon cancer xenografts; set-up: species or system Balb/c athymic mice
Procedure: Balb/c female athymic mice (8 weeks of age obtained from the Animal Resource Centre, Perth, Western Australia) were maintained under pathogen-free conditions and fed standard mouse chow and water ad lib. The mice were divided into groups of ten each. Mice in different groups were marked by ear notching. Briefly, the mice were anaesthetised using isoflurothane by inhalation and their ears marked using a surgical punch. After a recovery period of 48 hours, the mice in each group were injected with 1×10^6 HT29 colon cancer cells in standard DMEM culture medium subcutaneously dorsally behind the right shoulder using a 21-gauge needle. Animal weights and tumour sizes (breadth and length measured with callipers) were recorded weekly. Mice were sacrificed by CO2 asphyxiation and tumour mass excised for measurement.
Mice were injected twice weekly for four weeks commencing 10 days after tumour cell inoculation with DMEM, signal peptide ([…]) (designated “carrier”) (SEQ ID No: 1) or the […] (IK-1) (SEQ ID No: 19) peptide agent, and tumour growth was compared to an untreated control group.
Colon cancer inhibition by peptide […] (IK2P) (SEQ ID No: 18) administered intravenously to colon tumour bearing Balb/c athymic mice as per the protocol described above, is shown in FIG. 20. Colon tumour xenografts were achieved by injection of 1×10^6 HT29 colon cancer cells as above. […]

cancer cell lines = assay: Proliferation of cancer cell lines with signal peptide alone; type: cell-based; conditions: any cancer cell lines tested, data not shown
HT29 colon cancer cells [4] = tested on: HT29 colon cancer cells
Procedure: (§7) An assay using the substrate methylthiazoletetrazolium (MTT) was utilised to determine the inhibitory affect of peptide agents on cancer cell proliferation. MTT substrate (CAT No. M-2128, Sigma) is cleaved in growing cells to yield a water insoluble salt. After solubilisation of the salt, a coloured product is produced that allows quantitation of the proliferative activity of the cultured cells. To prepare the MTT solution for use in the assay, 100 mg of MTT is mixed with 20 ml of PBS at pH 7.4. The resulting solution is filter sterilised (0.2 μM syringe filter) and stored at 4° C. protected from light until use.
(§8) Cells from the colon cancer cell line HT29 were seeded into wells of a 96-well microlitre plate in Dulbecco's Modified Eagle's Medium (DMEM) supplemented with 10% foetal bovine serum, glutamine, Hepes, and antibiotics at a concentration of 2,000 cells/100 μl and cultured for 24 hours in 5% CO2 in air at 37° C. After the 24 hour incubation period the test agent (solubilised in complete DMEM) is added to test wells to a final media volume of 200 μl and the microtitre plate is incubated for a further 48 to 72 hour period.
(§9) A 20 μl volume of the MTT solution prepared as above is then added to the test wells and the microtitre plate incubated for further 3 hours in 5% CO2 in air at 37° C. The plate is subsequently centrifuged for 5 minutes at 2,000 rpm in a microplate carrier. The supernatant is then removed from the wells using a multichannel pipette leaving MTT crystals in the wells.
(§10) To the wells is then added 150 μl of 6:1 v/v DMSO/glycine solution (0.1 M glycine and 0.1 M NaCl adjusted to pH 10.5 using NaOH) and the MTT crystals are dissolved by gently vortexing the microtitre plate. Absorbance is read at 550 nm using a microtitre plate reader.

HT29 colon cancer cells [5] = assay: Cell proliferation assay using MTT; conditions: for inhibition of proliferation (in words): relative to untreated control cells
Procedure: as §7, §8, §9, §10

cytoplasmic domain of β6 = biological target: T1, cytoplasmic domain of β6 (Homo sapiens, UniProt P18564); assay: ELISA binding of MAP kinase fragments to the cytoplasmic domain of β6; conditions: FIG. 1 and FIG. 4
T1 sequence (P18564 737-788): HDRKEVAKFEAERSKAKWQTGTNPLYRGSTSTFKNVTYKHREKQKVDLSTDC
Procedure: Primary antibody detection for the MAP kinase is then added to the test wells and the ELISA plate is allowed to stand for a further 30 minutes at room temperature before the antibody solution is decanted from the plate and the wells again washed with the wash solution. Optimal dilutions of primary detection antibody are pre-determined for each target MAP kinase. […] The wells are read at 405 nm using a microplate reader (Bio-Rad). […]
The binding of various MAP kinases to the cytoplasmic domain of β6 was tested using the assay described in Example 1.1. […] (SEQ ID No: 26), and the binding interaction detected using the anti-β6 antibody R6G9. […]

ERK2 = assay: ELISA assay for detection of MAP kinase binding to biotinylated peptide; conditions: result in words
Procedure: (§4) An assay was developed for detecting the ability of MAP kinases to bind with a peptide agent in solution.
(§5) Briefly, the MAP kinase is added to an eppendorf tube containing a biotinylated test peptide in phosphate buffered saline (PBS) at pH 7.4. The mixture is allowed to stand at room temperature for 10 minutes with occasional mixing by gentle inversion of the tube. The MAP kinase/test peptide mixture is then transferred to a pre-washed (PBS×3×100 μl) 96-well streptavidin coated ELISA microtitre plate and allowed to stand for 60 minutes at room temperature. At the end of the 60 minute period, the MAP kinase/test peptide mixture is tipped from the ELISA plate and the wells washed 3 times with wash solution (PBS+0.05% Tween−20).
(§6) Primary antibody detection for the MAP kinase is then added to the test wells and the ELISA plate is allowed to stand for a further 30 minutes at room temperature before the antibody solution is decanted from the plate and the wells again washed with the wash solution. Optimal dilutions of primary detection antibody are pre-determined for each target MAP kinase. Alkaline-phosphatase or other enzyme conjugated anti-primary species antibody at a dilution of 1:2000 v/v is subsequently added to the wells and the microtitre plate is allowed to stand for another 30 minutes at room temperature, before the washing step is repeated and phosphatase detection reagent is added to the wells and the colour reaction allowed to develop. The wells are read at 405 nm using a microplate reader (Bio-Rad). Controls comprise non-biotinylated peptide and biotinylated peptide alone

ERK1 = biological target: T2, ERK1 (Homo sapiens, UniProt P27361); assay: as above; conditions: FIG. 2
T2 construct: GST (N, cleaved yes); made in house
T2 sequence (P27361 whole entry, species assumed): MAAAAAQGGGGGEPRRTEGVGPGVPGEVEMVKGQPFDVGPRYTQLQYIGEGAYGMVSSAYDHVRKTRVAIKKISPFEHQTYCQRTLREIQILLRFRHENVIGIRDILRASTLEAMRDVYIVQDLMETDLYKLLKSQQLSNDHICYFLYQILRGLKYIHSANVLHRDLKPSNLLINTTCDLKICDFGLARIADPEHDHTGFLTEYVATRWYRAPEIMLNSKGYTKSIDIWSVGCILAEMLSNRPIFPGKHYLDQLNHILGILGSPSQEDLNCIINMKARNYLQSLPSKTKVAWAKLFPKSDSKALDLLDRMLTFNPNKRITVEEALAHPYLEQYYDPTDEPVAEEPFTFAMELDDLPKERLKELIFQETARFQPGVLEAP
Procedure: as §4, §5, §6

Compound: O=c1[nH]cc(F)c(=O)[nH]1 [5-FU, 5-Fluorouracil, reference compound]
impact on proliferation of normal HUVEC cells (HUVEC cells): toxicity

Compound: CN[C@@H]1C[C@H]2O[C@@](C)([C@@H]1OC)n1c3ccccc3c3c4c(c5c6ccccc6n2c5c31)C(=O)NC4 [staurosporin, Staurosporine, reference compound]
induction of apoptosis (HT29 colon cancer cells [1]): apoptosis was induced | induction of apoptosis [2]: induced apoptosis | induction of apoptosis (HUVEC): induced apoptosis | induction of apoptosis (skin fibroblasts (SkinF)): induced apoptosis

Compound: AAVALLPAVLLALLA [nfkb, reference compound]
mouse weight at day 28 ([3]; intra-tumoural injections, day 28 relative to time 0 / control group, FIG. 18B): marked weight loss

Compound: AAVALLPAVLLALLAP [nfkbp, K-FGF signal peptide]
effect of signal peptide alone on proliferation (cancer cell lines): essentially no effect

Compound: AAVALLPAVLLALLAPRSKAKNPLYR [nfkb10(4)p]
impact on proliferation of normal HUVEC cells (HUVEC cells): relatively minimal | inhibition of proliferative response compared to 5-FU (HT29 colon cancer cells [4]): more effective

Compound: AAVALLPAVLLALLARSKAKNPLYR (also: acetate salt) [nfkb10(4)acetate]
inhibition of proliferation at the highest concentration (HT29 colon cancer cells [5]; HT29, MTT, highest concentration of peptide employed): total inhibition

Compound: AAVALLPAVLLALLARSKAKNPLYR [IK2]
induction of apoptosis [2]: essentially no apoptosis | induction of apoptosis (HUVEC): essentially no apoptosis | induction of apoptosis (skin fibroblasts (SkinF)): essentially no apoptosis

mouse weight at day 28 ([3]; mouse, in vivo): Substantially no difference
Compound: AAVALLPAVLLALLARSKAKWQTGTNPLYR [IK-1]
impact on proliferation of normal HUVEC cells (HUVEC cells; HUVEC, MTT): essentially no impact

Compound: AAVALLPAVLLALLARSRARNPLYR [nf-b5-10-4]
degree of inhibition compared with nf-b5-frag 5 (HT29 colon cancer cells [5]; HT29, MTT, FIG. 14G): greater degree of inhibition | inhibition of proliferation (in words) (HT29 colon cancer cells [5]; HT29, MTT): inhibited proliferation

Compound: Alkyl(4): stearic acid coupled to the RSKAKNPLYR peptide (also: stearic acid coupled (site not given here))
inhibition of proliferation (in words) (HT29 colon cancer cells [5]; HT29, MTT): effective

Compound: GRKKRRQRRRPQCG [TAT-G, reference compound]
toxicity of carrier peptide alone (HT29 colon cancer cells [5]; HT29, FIG. 8 and FIG. 9): some toxicity

Compound: HRDLKPSNLAVNEDCELKILDFGLAR [p38 MAP kinase fragment]
binding to the cytoplasmic domain of β6 (cytoplasmic domain of β6): bound

binding to ERK2 (ERK2): bound by ERK2
Compound: KEKLKNPLFK [β2 (10(4)]

binding to ERK2 (ERK2): still bound by ERK2
Compound: RARAKNPLYK

binding to ERK2 (ERK2): binds to ERK2 | binding to ERK2 (ERK2; listed as RSKAKNPLYR): still bound by ERK2
Compound: RSKAKNPLYR [10(4)]

binding to ERK1 (ERK1): bind | binding to ERK2 (ERK2): bind
Compound: RSKAKWQTGTNPLYR

binding to ERK2 (ERK2): still bound by ERK2
Compound: RSRARNPLYR

Compound: VTVLALGALAGVGVGRSKAKWQTGTNPLYR [Frag 5B3]
proliferation of the cells relative to control cells (HT29 colon cancer cells [5]; HT29, MTT, higher concentration of the peptides used, FIG. 5): about 37%
